Key:
human 5-HT2C receptor = molecular target: T1, human 5-HT2C receptor (Homo sapiens, UniProt P28335); assay: 5-HT2C receptor-stimulated calcium mobilization (FLIPR) in CHO cells; format: cell-based; conditions: for Emax: CHO, read-out: 5-HT2C Function EMax (%); for EC50: read-out: 5-HT2C Function EC50
T1 sequence (P28335 33-458): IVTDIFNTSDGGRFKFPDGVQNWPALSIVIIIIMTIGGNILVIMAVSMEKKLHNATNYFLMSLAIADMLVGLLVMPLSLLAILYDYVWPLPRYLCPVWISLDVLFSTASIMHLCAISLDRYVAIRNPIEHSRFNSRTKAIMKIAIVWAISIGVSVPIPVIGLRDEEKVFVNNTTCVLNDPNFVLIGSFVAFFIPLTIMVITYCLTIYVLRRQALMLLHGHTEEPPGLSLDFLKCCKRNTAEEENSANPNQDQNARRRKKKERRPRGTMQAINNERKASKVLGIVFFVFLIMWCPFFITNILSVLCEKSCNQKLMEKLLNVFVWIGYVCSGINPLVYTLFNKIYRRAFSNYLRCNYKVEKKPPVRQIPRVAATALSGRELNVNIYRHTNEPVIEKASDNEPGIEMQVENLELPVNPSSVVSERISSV

[1] = molecular target: T2, human 5-hydroxytryptamine-2C (h5-HT2C) receptor (Homo sapiens, UniProt P28335); assay: 5-HT2C binding: [125I]DOI displacement in membranes of transfected CHO cells; conditions: read-out: 5-HT2C Binding Ki avg
T2 construct: expressed in transfected cells; host or cells: CHO (Chinese Hamster Ovary) cells; membranes
T2 sequence (P28335 33-458): T1 sequence (P28335 33-458)

SMILES	Emax (human 5-HT2C receptor)	EC50 (human 5-HT2C receptor)	Ki [1]
CCNCC1COc2cccc(-c3ccc(Cl)cc3Cl)c2O1 (centres unmarked) [Compound I-33, N-{[8-(2,4-Dichlorophenyl)-2,3-dihydro-1,4-benzodioxin-2-yl]methyl}ethanamine]	30%	> 500 nM	50 to 200 nM
Cc1cccc(-c2cccc3c2OC(CN)CO3)c1C (centres unmarked) [Compound I-10, {[8-(2,3-Dimethylphenyl)-2,3-dihydro-1,4-benzodioxin-2-yl]methyl}amine]	50%	100 to 500 nM	> 200 nM
NCC1COc2cccc(-c3ccccc3F)c2O1 (centres unmarked) [Compound I-2, {[8-(2-Fluorophenyl)-2,3-dihydro-1,4-benzodioxin-2-yl]methyl}amine]	70%	< 100 nM	< 50 nM
CNCC1COc2cccc(-c3ccccc3Cl)c2O1 (centres unmarked) [Compound I-21, {[8-(2-Chlorophenyl)-2,3-dihydro-1,4-benzodioxin-2-yl]methyl}methylamine]	40%	< 100 nM	< 50 nM
NC[C@H]1COc2cccc(-c3ccccc3C(F)(F)F)c2O1 [Compound I-57, 1-{(2S)-8-[2-(trifluoromethyl)phenyl]-2,3-dihydro-1,4-benzodioxin-2-yl}methanamine]	50%		< 50 nM
NC[C@H]1COc2cc(F)cc(-c3c(Cl)cccc3Cl)c2O1 [Compound I-47, {[(2S)-8-(2,6-Dichlorophenyl)-6-fluoro-2,3-dihydro-1,4-benzodioxin-2-yl]methyl}amine]	60%	< 100 nM	< 50 nM
CCCNCC1COc2cccc(-c3ccc(Cl)cc3Cl)c2O1 (centres unmarked) [Compound I-35, N-{[8-(2,4-Dichlorophenyl)-2,3-dihydro-1,4-benzodioxin-2-yl]methyl}propan-1-amine]		> 500 nM	50 to 200 nM
NC[C@H]1COc2cc(Cl)cc(-c3ccccc3Cl)c2O1 [Compound I-58, (2S)-[6-Chloro-8-(2-chloro-phenyl)-2,3-dihydro-benzo[1,4]dioxin-2-yl]-methylamine]	50%	< 100 nM	< 50 nM
COc1ccc(Cl)cc1-c1cccc2c1OC(CN)CO2 (centres unmarked) [Compound I-16, {[8-(5-Chloro-2-methoxyphenyl)-2,3-dihydro-1,4-benzodioxin-2-yl]methyl}amine]	60%	< 100 nM	50 to 200 nM
CNCC1COc2cccc(-c3ccccc3F)c2O1 (centres unmarked) [Compound I-18, {[8-(2-Fluorophenyl)-2,3-dihydro-1,4-benzodioxin-2-yl]methyl}methylamine]	50%	< 100 nM	< 50 nM
CC(C)NCC1COc2cccc(-c3ccc(Cl)cc3Cl)c2O1 (centres unmarked) [Compound I-37, N-{[8-(2,4-Dichlorophenyl)-2,3-dihydro-1,4-benzodioxin-2-yl]methyl}propan-2-amine]	20%	> 500 nM	> 200 nM
CN(C)CC1COc2cccc(-c3ccccc3Cl)c2O1 (centres unmarked) [Compound I-38, {[8-(2-Chlorophenyl)-2,3-dihydro-1,4-benzodioxin-2-yl]methyl}dimethylamine]	30%	100 to 500 nM	< 50 nM
COc1cccc(-c2cccc3c2OC(CN)CO3)c1OC (centres unmarked) [Compound I-9, {[8-(2,3-Dimethoxyphenyl)-2,3-dihydro-1,4-benzodioxin-2-yl]methyl}amine]	50%	< 100 nM	< 50 nM
NCC1COc2cccc(-c3ccc(F)cc3F)c2O1 (centres unmarked) [Compound I-14, {[8-(2,4-Difluorophenyl)-2,3-dihydro-1,4-benzodioxin-2-yl]methyl}amine]	70%	< 100 nM	< 50 nM
Clc1ccccc1-c1cccc2c1OC(CNCC1CC1)CO2 (centres unmarked) [Compound I-41, {[8-(2-Chlorophenyl)-2,3-dihydro-1,4-benzodioxin-2-yl]methyl}(cyclopropylmethyl)-amine]	20%	> 500 nM	50 to 200 nM
NCC1COc2cccc(-c3ccc(Cl)cc3Cl)c2O1 (centres unmarked) [Compound I-7, {[8-(2,4-Dichlorophenyl)-2,3-dihydro-1,4-benzodioxin-2-yl]methyl}amine]	70%	< 100 nM	< 50 nM
CC(C)NCC1COc2cccc(-c3ccccc3Cl)c2O1 (centres unmarked) [Compound I-36, N-{[8-(2-Chlorophenyl)-2,3-dihydro-1,4-benzodioxin-2-yl]methyl}propan-2-amine]		> 500 nM	> 200 nM
NCC1COc2cccc(-c3cccc(F)c3F)c2O1 (centres unmarked) [Compound I-13, {[8-(2,3-Difluorophenyl)-2,3-dihydro-1,4-benzodioxin-2-yl]methyl}amine]	70%	< 100 nM	< 50 nM
NCC1COc2cccc(-c3cccc(Cl)c3Cl)c2O1 (centres unmarked) [Compound I-6, {[8-(2,3-Dichlorophenyl)-2,3-dihydro-1,4-benzodioxin-2-yl]methyl}amine]	70%	100 to 500 nM	50 to 200 nM
COc1ccccc1-c1cccc2c1OC(CN)CO2 (centres unmarked) [Compound I-5, {[8-(2-Methoxyphenyl)-2,3-dihydro-1,4-benzodioxin-2-yl]methyl}amine]	60%	< 100 nM	50 to 200 nM
CNCC1COc2cccc(-c3ccccc3C(F)(F)F)c2O1 (centres unmarked) [Compound I-20, N-Methyl-1-{8-[2-(trifluoromethyl)phenyl]-2,3-dihydro-1,4-benzodioxin-2-yl}methanamine]	40%	> 500 nM	50 to 200 nM
NC[C@H]1COc2cc(Cl)cc(-c3ccccc3F)c2O1 [Compound I-59, (2S)-[6-Chloro-8-(2-fluoro-phenyl)-2,3-dihydro-benzo[1,4]dioxin-2-yl]-methylamine]	40%	100 to 500 nM	< 50 nM
CNCC1COc2cccc(-c3cccc(OC)c3OC)c2O1 (centres unmarked) [Compound I-30, {[8-(2,3-Dimethoxyphenyl)-2,3-dihydro-1,4-benzodioxin-2-yl]methyl}methylamine]		> 500 nM	50 to 200 nM

Continued, values first:

Emax (human 5-HT2C receptor)	EC50 (human 5-HT2C receptor)	Ki [1]	SMILES
80%	< 100 nM	< 50 nM	NCC1Oc2cc(Cl)cc(-c3ccc(Cl)cc3Cl)c2O1 (centres unmarked) [Compound I-96, [6-Chloro-4-(2,4-dichloro-phenyl)-benzo[1,3]dioxol-2-yl]-methylamine]
60%	100 to 500 nM	< 50 nM	NC[C@H]1COc2cc(Cl)cc(-c3ccccc3C(F)(F)F)c2O1 [Compound I-62, (2S)-[6-Chloro-8-(2-trifluoromethyl-phenyl)-2,3-dihydro-benzo[1,4]dioxin-2-yl]-methylamine]
90%	< 100 nM	< 50 nM	Cc1ccccc1-c1cc(F)cc2c1OC(CN)O2 (centres unmarked) [Compound I-80, 1-[4-(2-Methyl-phenyl)-6-fluoro-1,3-benzodioxol-2-yl]methanamine]
50%	100 to 500 nM	< 50 nM	COc1ccccc1-c1cc(Cl)cc2c1O[C@@H](CN)CO2 [Compound I-61, (2S)-[6-Chloro-8-(2-methoxy-phenyl)-2,3-dihydro-benzo[1,4]dioxin-2-yl]-methylamine]
50%	100 to 500 nM	< 50 nM	NC[C@H]1COc2cc(Cl)cc(-c3cc(Cl)ccc3Cl)c2O1 [Compound I-67, (2S)-[6-Chloro-8-(2,5-dichloro-phenyl)-2,3-dihydro-benzo[1,4]dioxin-2-yl]-methyl amine]
80%	< 100 nM	< 50 nM	NCC1Oc2cc(Cl)cc(-c3ccccc3Cl)c2O1 (centres unmarked) [Compound I-90, [6-Chloro-4-(2-chloro-phenyl)-benzo[1,3]dioxol-2-yl]-methylamine]
70%	< 100 nM	< 50 nM	NCC1Oc2cc(F)cc(-c3ccccc3C(F)(F)F)c2O1 (centres unmarked) [Compound I-82, 1-[4-(2-Trifluoromethyl-phenyl)-6-fluoro-1,3-benzodioxol-2-yl]methanamine]
50%	> 500 nM	< 50 nM	COc1cccc(-c2cc(Cl)cc3c2O[C@@H](CN)CO3)c1OC [Compound I-63, (2S)-[6-Chloro-8-(2,3-dimethoxy-phenyl)-2,3-dihydro-benzo[1,4]dioxin-2-yl]-methyl amine]
80%	< 100 nM	< 50 nM	CNCC1Oc2cc(F)cc(-c3ccccc3Cl)c2O1 (centres unmarked) [Compound I-87, 1-[4-(2-Chlorophenyl)-6-fluoro-1,3-benzodioxol-2-yl]-N-methylmethanamine]
80%	< 100 nM	< 50 nM	NCC1Oc2cc(F)cc(-c3cc(Cl)ccc3Cl)c2O1 (centres unmarked) [Compound I-81, 1-[4-(2,5-Dichloro-phenyl)-6-fluoro-1,3-benzodioxol-2-yl]methanamine]
60%	100 to 500 nM	< 50 nM	Cc1cccc(C)c1-c1cc(Cl)cc2c1O[C@@H](CN)CO2 [Compound I-69, (2S)-[6-Chloro-8-(2,6-dimethyl-phenyl)-2,3-dihydro-benzo[1,4]dioxin-2-yl]-methyl amine]
90%	< 100 nM	< 50 nM	NC[C@H]1Oc2cc(F)cc(-c3c(Cl)cccc3Cl)c2O1 [Compound I-85, 1-[(2S)-4-(2,6-dichlorophenyl)-6-fluoro-1,3-benzodioxol-2-yl]methanamine]
